Test results: patent US9464092B2, “Transient protection of normal cells during chemotherapy” (G1 Therapeutics, Inc., priority 2013, dated 2016)
Read-outs that look alike come from different tables or passages of the source.

Legend:
[1] = Mouse pharmacokinetics (oral gavage / intravenous); assay type: in vivo, mice
[2] = tested on: HSPCs (bone marrow); test: HSPC proliferation in bone marrow by EdU incorporation after oral gavage; assay type: in vivo, mice
Procedure: Mice were then sacrificed at the indicated times (0, 12, 24, 36, or 48 hours following compound administration), and bone marrow was harvested (n=3 mice per time point), as previously described (Johnson et al. J. Clin. Invest. (2010) 120(7), 2528-2536). Four hours before the bone marrow was harvested, mice were treated with 100 μg of EdU by intraperitoneal injection (Invitrogen). Bone marrow mononuclear cells were harvested and immunophenotyped using previously described methods and percent EdU positive cells were then determined (Johnson et al. J. Clin. Invest. (2010) 120(7), 2528-2536). In brief, HSPCs were identified by expression of lineage markers (Lin-), Sca1 (S+), and c-Kit (K+).
Four hours before animals were sacrificed and the bone marrow was harvested, mice were treated with 100 μg of EdU by intraperitoneal injection. Three mice per group were sacrificed at 12 hours and the remaining three animals per group were sacrificed at 24 hours. Results are shown in FIG. 6A as the ratio of EdU positive cells for treated animals at 12 or 24 hour time points compared to control.
Further experiments were completed with Compound T examining dose response and longer periods of compound treatment. […] […].
Both compounds were administered at 150 mg/kg by oral gavage. One hour prior to harvesting bone marrow, EdU was IP injected to label cycling cells. Bone marrow was harvested at 12, 24, 36, and 48 hours after compound treatment and the percentage of EdU positive HSPC cells was determined at each time point.

[3] = Grade 3/4 neutropenia and leukopenia; cited from earlier work
[4] = mice; cited from earlier work
[5] = tested on: HSPC (LKS+) and myeloid progenitor cells (LKS-); settings: single oral dose 150 mg/kg, mice; cited from earlier work
[6] = tested on: RB-negative SCLC cell lines (H69, H82, H209, H345, NCI417, or SHP-77); test: EdU proliferation, RB-negative SCLC cell lines; settings: 24 hours
[7] = PD0332991 pharmacokinetics / HSPC arrest in humans; assay type: in vivo
Procedure: When calculated half-life was longer than the duration of the experiment, the half-life was expressed as >the longest incubation time. The calculated half-life is also listed in parentheses. […] The timely resumption of cellular proliferation is necessary for tissue repair, and therefore an overly long period of arrest is undesirable in healthy cells such as HSPCs. The characteristics of a CDK4/6 inhibitor that dictate its arresting duration are its pharmacokinetic (PK) and enzymatic half-lives. Once initiated, a G1-arrest in vivo will be maintained as long as circulating compound remains at an inhibitory level, and as long as the compound engages the enzyme. […] […]. […] […]. These observations may explain the severe granulocytopenia seen with PD0332991 in the clinic.

[8] = Metabolic stability in liver microsomes; assay type: in vitro ADME, human, dog, rat, monkey, and mouse; settings: Sprague-Dawley (rat), liver microsomes, pH 7.4; each of the species tested (human, monkey, dog, rat, mouse), 1 uM
Procedure: Human, mouse, and dog liver microsomes were purchased from Xenotech, and Sprague-Dawley rat liver microsomes were prepared by Absorption Systems. The reaction mixture comprising 0.5 mg/mL of liver microsomes, 100 mM of potassium phosphate, pH 7.4, 5 mM of magnesium chloride, and 1 uM of test compound was prepared. The test compound was added into the reaction mixture at a final concentration of 1 uM. An aliquot of the reaction mixture (without cofactor) was incubated in shaking water bath at 37 deg. C. for 3 minutes. The control compound, testosterone, was run simultaneously with the test compound in a separate reaction. The reaction was initiated by the addition of cofactor (NADPH), and the mixture was then incubated in a shaking water bath at 37 deg. C. Aliquots (100 μL) were withdrawn at 0, 10, 20, 30, and 60 minutes for the test compound and 0, 10, 30, and 60 minutes for testosterone. […] Test compound samples were analyzed using the Orbitrap high resolution mass spectrometer to quantify the disappearance of parent test compound and detect the appearance of metabolites. […] Half-lives were calculated using GraphPad software, fitting to a single-phase exponential decay equation.
When calculated half-life was longer than the duration of the experiment, the half-life was expressed as >the longest incubation time. The calculated half-life is also listed in parentheses. […]

[9] = tested on: human renal proximal tubule epithelial cells (Rb-positive); test: Cellular wash-out experiment, renal proximal tubule epithelial cells; assay type: cell-based; settings: 300 nM, compared to compounds T, Q, GG, or U
Procedure: Alternatively, the same experiment was done using normal Renal Proximal Tubule Epithelial Cells (Rb-positive) obtained from American Type Culture Collection (ATCC, Manassas, Va.). Cells were grown in an incubator at 37° C. in a humidified atmosphere of 5% CO2 in Renal Epithelial Cell Basal Media (ATCC) supplemented with Renal Epithelial Cell Growth Kit (ATCC) in 37° C. humidified incubator.
Upon harvesting cells, samples were stained with propidium iodide staining solution and samples run on Dako Cyan Flow Cytometer. The fraction of cells in G0-G1 DNA cell cycle versus the fraction in S-phase DNA cell cycle was determined using FlowJo 7.2 0.2 analysis.

[10] = tested on: HS68 cells (human fibroblast, Rb-positive); test: Cellular wash-out experiment, HS68; assay type: cell-based
Procedure: EMBO J, 21(12)2936-2945 (2002) and Ruas et al. Mol Cell Biol, 27(12)-4273-4282 (2007)). […] On day 3, one set of treated cell samples were harvested in triplicate (0 Hour sample). Remaining cells were washed two times in PBS-CMF and returned to culture media lacking test compound. Sets of samples were harvested in triplicate at 24, 40, and 48 hours. Upon harvesting cells, samples were stained with propidium iodide staining solution and samples run on Dako Cyan Flow Cytometer. The fraction of cells in G0-G1 DNA cell cycle versus the fraction in S-phase DNA cell cycle was determined using FlowJo 7.2 0.2 analysis.

[11] = tested on: RB-intact, Cdk4/6-dependent cell line (WM2664 or tHS68); test: EdU proliferation, RB-intact Cdk4/6-dependent cell line; settings: 24 hours
[12] = humans; cited from earlier work
[13] = target: CDK2/CyclinE (Homo sapiens (Human), UniProt P24941); test: CDK2/CyclinE kinase assay (Nanosyn, Caliper microfluidic); assay type: biochemical; settings: Table 2; for IC50: read-out: CDK2/CycE IC50
Procedure: (§1) Selected compounds disclosed herein were tested in CDK4/cyclinD1, CDK6/CycD3 CDK2/CycA and CDK2/cyclinE kinase assays by Nanosyn (Santa Clara, Calif.) to determine their inhibitory effect on these CDKs. The assays were performed using microfluidic kinase detection technology (Caliper Assay Platform). The compounds were tested in 12-point dose-response format in singlicate at Km for ATP. Phosphoacceptor substrate peptide concentration used was 1 μM for all assays and Staurosporine was used as the reference compound for all assays.

[14] = tested on: HS68 cells (human skin fibroblast cell line (Rb-positive)); test: G1 arrest (cellular G1 and S-phase) assay; assay type: cell-based
Procedure: For determination of cellular fractions in various stages of the cell cycle following various treatments, HS68 cells (human skin fibroblast cell line (Rb-positive)) were stained with propidium iodide staining solution and run on Dako Cyan Flow Cytometer. The fraction of cells in G0-G1 DNA cell cycle versus the fraction in S-phase DNA cell cycle was determined using FlowJo 7.2 0.2 analysis.
The compounds listed in Table 1 were tested for their ability to arrest HS68 cells at the G1 phase of the cell cycle.

[15] = target: CDK2/CyclinA (Homo sapiens (Human), UniProt P24941); test: CDK2/CyclinA kinase assay (Nanosyn, Caliper microfluidic); assay type: biochemical; settings: Table 2; for IC50: read-out: CDK2/CycA IC50
Procedure: as §1, with “assays. Specifics of each assay are as described below:” for “assays.”
CDK2/CyclinA: Enzyme concentration: 0.2 nM; ATP concentration: 50 μM; Incubation time: 3 hr.

[16] = target: CDK4/CyclinD1 (Homo sapiens (Human), UniProt P11802); test: CDK4/CyclinD1 kinase assay (Nanosyn, Caliper microfluidic); assay type: biochemical; settings: Table 2; read-out: CDK4/CycD1 IC50
Procedure: as §1, with “assays. Specifics of each assay are as described below:” for “assays.”
CDK4/CyclinD1: Enzyme concentration: 1 nM; ATP concentration: 200 μM; Incubation time: 10 hr.

[17] = plasma, iv, mouse, 10 mg/kg i.v.
[18] = plasma, mouse, 30 mg/kg oral gavage

Sequence of CDK4/CyclinD1 (P11802 whole entry, species assumed): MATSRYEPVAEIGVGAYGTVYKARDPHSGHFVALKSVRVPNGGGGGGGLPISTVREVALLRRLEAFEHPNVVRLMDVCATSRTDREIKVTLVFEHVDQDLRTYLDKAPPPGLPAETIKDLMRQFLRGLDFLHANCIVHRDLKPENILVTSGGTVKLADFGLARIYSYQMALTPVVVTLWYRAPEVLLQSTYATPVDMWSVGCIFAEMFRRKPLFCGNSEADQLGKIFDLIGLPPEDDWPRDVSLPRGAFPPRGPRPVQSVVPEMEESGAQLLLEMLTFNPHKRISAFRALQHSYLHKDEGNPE
Sequence of CDK4/CyclinD1 (P24385 whole entry partner, species assumed): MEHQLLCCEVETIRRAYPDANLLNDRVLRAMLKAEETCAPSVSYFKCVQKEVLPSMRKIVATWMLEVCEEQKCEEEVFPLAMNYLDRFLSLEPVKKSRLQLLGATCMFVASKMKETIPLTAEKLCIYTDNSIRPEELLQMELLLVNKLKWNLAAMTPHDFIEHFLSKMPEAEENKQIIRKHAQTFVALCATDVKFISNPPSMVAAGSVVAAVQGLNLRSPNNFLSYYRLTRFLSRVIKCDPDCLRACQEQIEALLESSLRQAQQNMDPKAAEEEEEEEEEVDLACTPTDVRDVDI

O=C1NCC2(CCCCC2)n2c1cc1cnc(Nc3ccc(N4CCNCC4)cn3)nc12 [Compound Q]
oral bioavailability (in words) ([1]; mice): low
F ([1]; mouse): 2%
half-life ([1]; mouse, plasma, po, 30 mg/kg, mouse, 30 mg/kg oral gavage, read-out: t1/2 p.o. (converted)): 48 min
AUC(0-inf) [1, 17]: 0.95 µM·h
clearance [1, 17]: 44 mL/min/kg
Vd ([1]; plasma, iv, mouse, 10 mg/kg i.v., read-out: Vss): 5.2 L/kg
AUC [1, 18]: 0.15 µM·h
Cmax [1, 18]: 160 nM
Tmax [1, 18]: 30 min
EdU incorporation into HSPCs at 12 and 24 hours compared to control ([2]; 150 mg/kg oral gavage): some reduction at 12 hours and started to return to baseline at 24 hours
G1-arrest of bone marrow stem cells (HSPC) ([2]; oral gavage, mice): dose dependent, transient, and reversible G1-arrest

CC(=O)c1c(C)c2cnc(Nc3ccc(N4CCNCC4)cn3)nc2n(C2CCCC2)c1=O [PD0332991, 6-acetyl-8-cyclopentyl-5-methyl-2-(5-piperazin-1-yl-pyridin-2-ylammino)-8H-pyrido-[2,3-d]-pyrimidin-7-one]
patients requiring a dose interruption [3]: 71%
patients requiring a dose reduction [3]: 35%
PK half-life [4]: 360 min
duration of sustained reduction in HSPC and myeloid progenitor EdU incorporation [5]: greater than 36 hours
time post oral dosing at which HSPC and myeloid progenitor cells return to baseline cell division [5]: 48 h
effect on proliferation (EdU, percent of cells in S-phase) [6]: does not affect the growth of the Rb-negative small cell lung cancer cell lines
duration of cell cycle arrest of HSPC after a single administration [7]: approximately one week
half-life at 1 uM [8]: > 60 min
return to baseline levels of cell division after wash out [9]: took significantly longer to return to baseline levels of cell division
time post wash out for cells to return to normal baseline cell division ([10]; 300 nM, HS68 cells): greater than 48 hours
duration of cell cycle arrest in human cells after compound is removed (wash-out) ([10]; in vitro wash-out experiment): more than forty hours
effect on proliferation (EdU, percent of cells in S-phase) [11]: inhibits the Rb-positive cell line (WM2664)
PK half-life [12]: 1620 min

CCC(C)CN1CCN(c2ccc(Nc3ncc4cc5n(c4n3)C3(CCCC3)CNC5=O)nc2)CC1 (stereo not shown) [AAA]
Fold Selectivity (CDK2/CycE/CDK4) [13]: 2591
IC50 [13]: 6010 nM
EC50 ([14]; HS68 cells): 275 nM
Fold Selectivity (CDK2/CycA/CDK4) [15]: 918
IC50 [15]: 2130 nM
IC50 [16]: 2.3 nM

CCC(C)[C@@H]1CNC(=O)c2cc3cnc(Nc4ccc(N5CCN(C)CC5)cn4)nc3n21 (stereo partly shown) [VVV]
Fold Selectivity (CDK2/CycE/CDK4) [13]: 589
IC50 [13]: 4380 nM
EC50 ([14]; Homo sapiens, Hs68, HS68 cells): 300 nM
IC50 [16]: 7.4 nM

CC1CN(c2ccc(Nc3ncc4cc5n(c4n3)C3(CCCC3)CNC5=O)nc2)CC(C)N1CCC(C)(C)C (stereo not shown) [PPP]
Fold Selectivity (CDK2/CycE/CDK4) [13]: 21263
IC50 [13]: 16500 nM
EC50 ([14]; Homo sapiens, Hs68, HS68 cells): 275 nM
Fold Selectivity (CDK2/CycA/CDK4) [15]: 3402
IC50 [15]: 2640 nM
IC50 [16]: 0.8 nM

CCC(C)CN1CCN(c2ccc(Nc3ncc4cc5n(c4n3)C3(CCCC3)CNC5=O)nc2)CC1 (stereo not shown) [FFF]
Fold Selectivity (CDK2/CycE/CDK4) [13]: 966
IC50 [13]: 4540 nM
EC50 ([14]; HS68 cells): 650 nM
Fold Selectivity (CDK2/CycA/CDK4) [15]: 291
IC50 [15]: 1370 nM
IC50 [16]: 4.7 nM
